# In patent EP4332093A1, “SALT CONTAINING PIPERAZINE POLYCYCLIC DERIVATIVE, CRYSTAL FORM THEREOF, PREPARATION METHOD THEREFOR, AND USE THEREOF” (Shanghai Hansoh Biomedical Co., Ltd., priority 2021, dated 2022):
# How the values were obtained:
# [1] = Crystal form stability study of hydrochloride for 30 days; assay type: physicochemical; conditions: HPLC peak area normalization
# Protocol: The diluent 80% methanol solution was added to prepare a solution containing about 0.5 mg/mL hydrochloride. The mixture was sonicated for 30min to produce a clear solution. 1mL of the soluion was filtered and measured by HPLC. See "2.3.4" for the HPLC analysis method. The content of related substances was calculated according to the peak area normalization method, and the results are shown in Table 32 below. Table 32 HPLC data of hydrochloride in stability experimental conditions for 30 days
# [2] = Hygroscopicity study of salt (DVS); assay type: physicochemical; conditions: 25°C, 0-95-0% RH
# Excerpt: The hygroscopicity of a drug refers to the characteristics of the drug's ability or degree of water absorption at a certain temperature and humidity. […] (DVS) was used to characterize the ability of drugs to absorb water under different humidity conditions. The instrument parameters are detailed in the table below. [table]
# [3] = Stability study of salt (light, high temperature, high humidity; 5 and 10 days; HPLC related substances); assay type: physicochemical
# Excerpt: The chromatographic peak area normalization method was used to calculate the changes of related substances. [table]
# [4] = Salt form quantification (HPLC-ELSD); assay type: physicochemical; conditions: HPLC-ELSD, external standard method
# Protocol: The number of acids binding in the salt form was quantified by HPLC-ELSD test. An appropriate amount of NaCl was weighed, and a series of linear solutions of different concentrations with the diluent acetonitrile-water (50:50) was prepared. […] The above linear solution and hydrochloride samples solution was taken to filter. [table]
# [5] = Solubility of hydrochloride and free base in different media (37°C, 24 hours, HPLC); assay type: physicochemical; conditions: for solubility at 24 h: thermodynamic from solid
# Protocol: The glass bottle was shaken overnight on an electrothermal constant temperature shaking tank, and the temperature was set to 37°C. After 24 hours, the sample solution was filtered with a 0.45 µm mixed water fiber filter membrane, and the subsequent filtrate was taken to test its content by HPLC. HPLC detection methods are described in "Stability Study Conditions". Table 24 Solubility of hydrochloride and free base in different pH buffers
# 5-HT2A receptor [6] = molecular target: T1, 5-HT2A receptor (Homo sapiens, UniProt P28223); assay: Calcium ion mobility in cells stably expressing 5-HT2A receptors (Flp-In-CHO-5HT2A, FLIPR); assay type: cell-based; design: expressed in transfected cells; conditions: Flp-In-CHO-5HT2A stable pool, 5HT stimulation
# T1 sequence (P28223 whole entry): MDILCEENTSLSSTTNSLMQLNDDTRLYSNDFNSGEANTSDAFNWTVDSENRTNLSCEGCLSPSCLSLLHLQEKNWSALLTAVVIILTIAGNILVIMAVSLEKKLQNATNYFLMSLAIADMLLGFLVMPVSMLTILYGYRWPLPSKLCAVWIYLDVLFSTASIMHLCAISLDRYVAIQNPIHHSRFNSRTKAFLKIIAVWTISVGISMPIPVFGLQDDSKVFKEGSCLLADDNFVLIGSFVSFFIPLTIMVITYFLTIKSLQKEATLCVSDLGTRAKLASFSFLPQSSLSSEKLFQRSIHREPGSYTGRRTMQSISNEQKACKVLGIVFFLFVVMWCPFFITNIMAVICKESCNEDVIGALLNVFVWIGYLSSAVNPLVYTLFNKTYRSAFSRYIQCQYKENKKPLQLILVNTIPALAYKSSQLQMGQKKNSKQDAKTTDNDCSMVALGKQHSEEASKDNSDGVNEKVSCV
# D3 receptor = molecular target: T2, D3 receptor (Homo sapiens, UniProt P35462); assay: cAMP content in cells stably expressing D3 receptors (CHO-D3, forskolin, HTRF); assay type: cell-based
# T2 construct: expressed in transfected cells
# T2 sequence (P35462 whole entry): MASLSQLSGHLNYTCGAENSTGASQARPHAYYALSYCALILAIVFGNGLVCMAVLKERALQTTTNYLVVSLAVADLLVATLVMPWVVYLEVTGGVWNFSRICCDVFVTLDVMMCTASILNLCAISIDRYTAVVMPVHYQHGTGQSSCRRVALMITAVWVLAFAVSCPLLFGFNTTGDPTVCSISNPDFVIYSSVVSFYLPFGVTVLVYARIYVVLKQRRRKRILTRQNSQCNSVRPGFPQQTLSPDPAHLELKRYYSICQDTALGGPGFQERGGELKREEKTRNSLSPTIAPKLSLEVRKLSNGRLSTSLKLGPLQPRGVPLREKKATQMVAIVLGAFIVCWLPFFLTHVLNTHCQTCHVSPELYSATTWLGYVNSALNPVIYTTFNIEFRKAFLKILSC
# 5-HT2A receptor [7] = molecular target: T1, 5-HT2A receptor; assay: Radioligand binding assay, 5-HT2A receptor ([3H]-Ketanserin); design: purchased PerkinElmer; conditions: Human 5-HT2A Receptor membrane, [3H]-Ketanserin 2 nM; read-out: 5HT-2A Binding IC50
# Protocol: Determination of the binding ability of the compounds of the
# present invention to 5-HT2A receptor
# The objective of this test example is to determine the affinity of the compounds for 5-HT2A receptor.
# Experimental buffer: 50 mM Tris-HCl pH 7.4, 4 mM CaCl2; washing liquor: 50 mM Tris-HCl pH 7.4, stored at 4°C; 0.5% PEI solution: 0.5 g PEI dissolved in 100 mL ddH2O, 4°C storage of spare.
# 5 µL of the test compounds (0.005 nM to 100 nM, 10 concentrations in total) and 100 µL of buffer were added to a 96-well assay plate. 1.5 µL of cell membrane and 300 µL of buffer were added to each well, and the plate was shaken at 600 rpm for 5 minutes. 100 µL of a mixed solution of buffer and [^3H]-Ketanserin (final concentration of 2 nM) was added to the reaction system per well, and the plate was shaken at 600 rpm for 5 minutes and incubated at 27°C for 30 min. The […]-96 GF/B filter plate pre-incubated with 0.5% PEI for 1 h was washed twice with the buffer (1 mL/well). The cell membrane suspension was added to the […]-96 GF/B filter plate, washed 4 times, and incubated at 55°C for 10 min. 40 µL of ULTIMA GOLD was added to each well, and liquid scintillation counting was carried out.
# (§1) The CPM (Counts per minute) values were determined by TopCount. […] The 10 concentrations of the compound were from 100 nM to 0.005 nM after 3-fold dilution of the reaction system. The percent inhibition rate and ten-point concentration data were fitted to the parametric nonlinear logistic equation by using GraphPad prism to calculate the IC50 values of the compound.
# dopamine D3 receptor = molecular target: T3, dopamine D3 receptor (Homo sapiens, UniProt P35462); assay: Radioligand binding assay, dopamine D3 receptor ([3H]-methylspiperone); conditions: Human Dopamine D3 Receptor membrane, [3H]-methylspiperone 0.5 nM
# T3 construct: purchased PerkinElmer ES-173-M400UA
# T3 sequence (P35462 whole entry): as above
# Protocol: Determination of the binding ability of the compounds of the present invention to dopamine D3 receptor
# The objective of this test example is to determine the affinity of the compounds for dopamine D3 receptor.
# Experimental buffer: 50 mM Tris-HCl pH 7.4, 10 mm MgCl2; washing liquor: 50 mM Tris-HCl pH 7.4, stored at 4°C; 0.5% PEI solution: 0.5 g PEI dissolved in 100 mL ddH2O, 4°C storage of spare.
# 5 µL of the test compounds (0.005 nM to 100 nM, 10 concentrations in total) and 100 µL of buffer were added to a 96-well assay plate. 1 µL of cell membrane and 300 µL of buffer were added to each well, and the plate was shaken at 600 rpm for 5 minutes. 100 µL of a mixed solution of buffer and [^3H]-methylspiperone (final concentration of 0.5 nM) was added to the reaction system per well, and the plate was shaken at 600 rpm for 5 minutes and incubated at 27°C for 30 min. The UNIFII,TER-96 GF/B filter plate pre-incubated with 0.5% PEI for 1 h was washed twice with the buffer (1 mL/well). The cell membrane suspension was added to the […]-96 GF/B filter plate, washed 4 times, and incubated at 55°C for 10 min. 40 µL of ULTIMA GOLD was added to each well, and liquid scintillation counting was carried out.
# as §1
structure (smiles),measurement,setting,value
Cl.O=C(N[C@H]1C[C@H](CCN2CCN(c3cccc(Cl)c3Cl)CC2)C1)c1ncco1 [hydrochloride],Area% at RRT 1.00,[1]; 0d,99.44%
same,Area% at RRT 1.07,[1]; 0d,0.07%
same,Area% at RRT 1.93,[1]; 0d,0.42%
same,Area% at RRT 2.43,[1]; 0d,0.07%
same,Area% at RRT 1.00,[1]; GS-30d,99.43%
same,Area% at RRT 1.07,[1]; GS-30d,0.11%
same,Area% at RRT 1.93,[1]; GS-30d,0.39%
same,Area% at RRT 2.43,[1]; GS-30d,0.07%
same,Area% at RRT 1.00,[1]; GW-30d,99.51%
same,Area% at RRT 1.07,[1]; GW-30d,0.08%
same,Area% at RRT 1.93,[1]; GW-30d,0.41%
same,Area% at RRT 1.00,[1]; GZ-30d,99.43%
same,Area% at RRT 1.07,[1]; GZ-30d,0.09%
same,Area% at RRT 1.93,[1]; GZ-30d,0.41%
same,Area% at RRT 2.43,[1]; GZ-30d,0.08%
same,Area% at RRT 1.00,[1]; WS-30d,99.46%
same,Area% at RRT 1.07,[1]; WS-30d,0.09%
same,Area% at RRT 1.93,[1]; WS-30d,0.38%
same,Area% at RRT 2.43,[1]; WS-30d,0.07%
same,hygroscopicity (DVS),[2],slightly hygroscopic
same,stability (growth of impurities),[3],good stability
same,Determination of Cl-percentage content in hydrochloride,[4]; Batch 1,7.82%
same,Determination of Cl-percentage content in hydrochloride,[4]; Batch 2,7.90%
same,solubility in different pH buffers,[5],"pH-dependent, with better solubility under acidic conditions, poor solubility under neutral or alkaline conditions"
same,solubility at 24 h,"[5]; aqueous buffer, Buffer pH 3",> 1000 µg/mL
same,solubility at 24 h,"[5]; aqueous buffer, Buffer pH 4",> 1000 µg/mL
same,solubility at 24 h,"[5]; aqueous buffer, Buffer pH 5",863 µg/mL
same,solubility at 24 h,"[5]; aqueous buffer, Buffer pH 6",187 µg/mL
same,solubility at 24 h,"[5]; aqueous buffer, Buffer pH 7",14 µg/mL
same,solubility at 24 h,"[5]; aqueous buffer, Buffer pH 8",1 µg/mL
same,solubility at 24 h,"[5]; fassgf or other biorelevant, FaSSCoF",> 1000 µg/mL
same,solubility at 24 h,"[5]; fassgf or other biorelevant, FaSSGF",117 µg/mL
same,solubility at 24 h,"[5]; fassgf or other biorelevant, FeSSCoF",> 1000 µg/mL
same,solubility at 24 h,"[5]; simulated gastric fluid, Buffer pH 1",> 1000 µg/mL
same,solubility at 24 h,"[5]; simulated gastric fluid, Buffer pH 2",> 1000 µg/mL
same,solubility at 24 h,[5]; FaSSIF,> 1000 µg/mL
same,solubility at 24 h,[5]; FeSSIF,> 1000 µg/mL
same,solubility in water compared with free base,[5]; water,greatly improved
same,solubility at 24 h,"[5]; water, H2O",> 1000 µg/mL
"Cc1nc(C(=O)N[C@H]2C[C@H](CCN3CCN(c4cccc(Cl)c4Cl)CC3)C2)co1 [Example 18A, N-(Trans-3-(2-(4-(2,3-dichlorophenyl)piperazin-1-yl)ethyl)cyclobutyl)-2-methyloxazole-4-carboxamide]",IC50,5-HT2A receptor [6],6.44 nM
same,EC50,D3 receptor,1.4 nM
same,IC50,5-HT2A receptor [7],1.37 nM
same,IC50,dopamine D3 receptor,0.42 nM
"Cc1cnoc1C(=O)N[C@H]1C[C@H](CCN2CCN(c3cccc(Cl)c3Cl)CC2)C1 [Example 13A, N-(Trans-3-(2-(4-(2,3-dichlorophenyl)piperazin-1-yl)ethyl)cyclobutyl)-4-methylisox azole-5-carboxamide]",IC50,5-HT2A receptor [6],11.7 nM
same,EC50,D3 receptor,1.1 nM
same,IC50,5-HT2A receptor [7],1.81 nM
same,IC50,dopamine D3 receptor,1.36 nM
"O=C(N[C@H]1C[C@H](CCN2CCN(c3cccc(Cl)c3Cl)CC2)C1)c1ccon1 [Example 17A, N-(Trans-3-(2-(4-(2,3-dichlorophenyl)piperazin-1-yl)ethyl)cyclobutyl)isoxazole-3-ca rboxamide]",IC50,5-HT2A receptor [6],20.8 nM
same,EC50,D3 receptor,1.1 nM
same,IC50,5-HT2A receptor [7],1.92 nM
same,IC50,dopamine D3 receptor,0.3 nM
Cc1cc(C(=O)NC2CC(CCN3CCN(c4cccc(Cl)c4Cl)CC3)C2)on1 (stereo not shown) [Example 14A],IC50,5-HT2A receptor [6],4.37 nM
same,EC50,D3 receptor,0.9 nM
same,IC50,5-HT2A receptor [7],1.35 nM
same,IC50,dopamine D3 receptor,0.34 nM
